# Results as given in patent US10550165B2, “Peptide for inducing regeneration of tissue and use thereof” (STEMRIM INC., priority 2011, dated 2020).
# Test system: mouse bone marrow mesenchymal stem cell line (MSC-1 cells), PDGFRα-positive
# Assay: Migration assay (Boyden / 48-well chemotaxis chamber) on bone marrow mesenchymal stem cell line MSC-1
# Format: cell-based
# How it was run: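 Mouse MSC-1 cells (3×10^6 cells/ml in D-MEM with 10% FBS) loaded in the upper wells of a 48-well Boyden chamber with 8 μm polycarbonate membrane; mouse HMGB1 peptides or HEK293-made HMGB1 in lower wells at 100 μg/ml, 5 μM or 10 μM; PBS as negative control. After 4 h at 37° C, migrated cells were Diff-Quik stained.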
# [1] = 2 μM, area of migrated cells by image analysis, FIG. 10
substance,measurement,setting,value
"synthetic peptide (1-44): chemically synthesized HMGB1 peptide, amino acids 1 to 44, mouse HMGB1 sequence (MGKGDPKKPRGKMSSYAFFVQTCREEHKKKHPDASVNFSEFSKK; UniProt P63158 1-44, looked up, fragment)","migration-promoting activity relative to the full-length HMGB1, compared per equal mass",[1],2.86 times
same,"migration-promoting activity relative to the full-length HMGB1, compared per equal mole",[1],0.57 times
same,migration-promoting activity,"synthetic peptides, 100 μg/ml, positive control 1-215(HEK), FIG. 7",activity comparable to or higher than that of the positive control
